Measured values reported in ChEMBL document CHEMBL4184089 (Bioorg Med Chem Lett, 2018).

Tests used:
[1] = molecular target: Sphingosine 1-phosphate receptor 2 (Homo sapiens, UniProt O95136); assay: Displacement of [32P]S1P from recombinant human S1PR2 expressed in Chem1 cell membranes co-expressing Galpha15 pretreated for 30 mins followed by [32P]S1P addition measured after 60 mins by scintillation counting method
[2] = molecular target: Sphingosine 1-phosphate receptor 5 (Homo sapiens, UniProt Q9H228); assay: Displacement of [32P]S1P from recombinant human S1PR5 expressed in cell membranes pretreated for 30 mins followed by [32P]S1P addition measured after 60 mins by scintillation counting method
[3] = molecular target: Sphingosine 1-phosphate receptor 3 (Homo sapiens, UniProt Q99500); assay: Displacement of [32P]S1P from recombinant human S1PR3 expressed in Chem1 cell membranes co-expressing Galpha15 pretreated for 30 mins followed by [32P]S1P addition measured after 60 mins by scintillation counting method
[4] = molecular target: T1, Sphingosine 1-phosphate receptor 4 (Homo sapiens, UniProt O95977); assay: Displacement of [32P]S1P from recombinant human S1PR4 expressed in cell membranes pretreated for 30 mins followed by [32P]S1P addition measured after 60 mins by scintillation counting method
T1 sequence (O95977 whole entry): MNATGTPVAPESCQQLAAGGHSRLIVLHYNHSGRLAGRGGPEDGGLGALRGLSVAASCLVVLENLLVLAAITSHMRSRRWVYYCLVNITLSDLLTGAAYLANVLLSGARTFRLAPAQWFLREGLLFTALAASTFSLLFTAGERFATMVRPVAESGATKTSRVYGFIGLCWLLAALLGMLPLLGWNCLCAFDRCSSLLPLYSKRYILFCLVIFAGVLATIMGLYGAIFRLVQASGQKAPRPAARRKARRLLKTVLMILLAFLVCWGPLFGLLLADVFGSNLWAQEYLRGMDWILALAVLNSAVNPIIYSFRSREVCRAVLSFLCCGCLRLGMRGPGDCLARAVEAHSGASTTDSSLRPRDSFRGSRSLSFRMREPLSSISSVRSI

[5] = molecular target: Sphingosine 1-phosphate receptor 1 (Homo sapiens, UniProt P21453); assay: Displacement of [32P]S1P from recombinant human S1PR1 expressed in CHOK1 cell membranes pretreated for 30 mins followed by [32P]S1P addition measured after 60 mins by scintillation counting method
Chain of Sphingosine 1-phosphate receptor 1 (P21453 whole entry): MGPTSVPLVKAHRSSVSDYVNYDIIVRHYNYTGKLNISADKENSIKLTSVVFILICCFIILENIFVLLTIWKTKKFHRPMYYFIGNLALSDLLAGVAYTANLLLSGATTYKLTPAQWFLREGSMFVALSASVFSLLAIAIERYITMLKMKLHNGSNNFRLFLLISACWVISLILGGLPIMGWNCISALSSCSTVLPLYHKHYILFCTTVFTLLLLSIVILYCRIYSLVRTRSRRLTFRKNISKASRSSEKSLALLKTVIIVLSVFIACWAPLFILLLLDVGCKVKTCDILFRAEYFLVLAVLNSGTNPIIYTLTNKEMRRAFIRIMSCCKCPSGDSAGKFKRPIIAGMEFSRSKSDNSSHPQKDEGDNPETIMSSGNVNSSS

Chain of Sphingosine 1-phosphate receptor 2 (O95136 whole entry): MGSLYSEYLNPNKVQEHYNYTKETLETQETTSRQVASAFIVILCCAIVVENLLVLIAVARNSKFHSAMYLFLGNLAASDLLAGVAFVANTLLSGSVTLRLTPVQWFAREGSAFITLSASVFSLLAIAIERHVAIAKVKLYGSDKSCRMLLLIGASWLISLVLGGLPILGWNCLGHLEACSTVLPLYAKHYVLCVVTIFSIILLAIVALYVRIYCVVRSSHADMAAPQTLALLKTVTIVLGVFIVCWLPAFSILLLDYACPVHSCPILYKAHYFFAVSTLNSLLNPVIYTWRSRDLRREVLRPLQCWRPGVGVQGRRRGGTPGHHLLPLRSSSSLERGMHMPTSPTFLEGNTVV
Chain of Sphingosine 1-phosphate receptor 3 (Q99500 whole entry): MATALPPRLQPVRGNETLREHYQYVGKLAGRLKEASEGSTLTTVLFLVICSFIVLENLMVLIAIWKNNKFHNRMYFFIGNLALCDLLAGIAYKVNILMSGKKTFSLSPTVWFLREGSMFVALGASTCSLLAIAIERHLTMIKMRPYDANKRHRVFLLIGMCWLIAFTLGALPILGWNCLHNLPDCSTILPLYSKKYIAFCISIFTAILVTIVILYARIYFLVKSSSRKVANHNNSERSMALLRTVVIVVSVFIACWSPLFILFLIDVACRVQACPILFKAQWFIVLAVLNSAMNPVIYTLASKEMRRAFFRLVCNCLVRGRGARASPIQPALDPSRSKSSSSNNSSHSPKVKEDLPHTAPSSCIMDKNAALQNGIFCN
Chain of Sphingosine 1-phosphate receptor 5 (Q9H228 whole entry): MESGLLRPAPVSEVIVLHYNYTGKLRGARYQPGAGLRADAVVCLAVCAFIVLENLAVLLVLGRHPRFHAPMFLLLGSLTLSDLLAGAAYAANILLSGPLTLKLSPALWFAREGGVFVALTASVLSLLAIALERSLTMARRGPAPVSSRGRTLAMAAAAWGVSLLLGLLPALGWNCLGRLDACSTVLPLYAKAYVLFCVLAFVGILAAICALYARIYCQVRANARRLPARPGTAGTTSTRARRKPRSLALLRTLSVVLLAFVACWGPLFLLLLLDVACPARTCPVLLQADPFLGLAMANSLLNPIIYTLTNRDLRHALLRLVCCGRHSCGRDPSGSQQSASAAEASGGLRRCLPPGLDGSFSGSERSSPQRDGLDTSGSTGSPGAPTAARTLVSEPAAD

| Structure (SMILES) | IC50 [1] [nM] | IC50 [2] [nM] | IC50 [3] [nM] | IC50 [4] [nM] | IC50 [5] [nM] |
| --- | --- | --- | --- | --- | --- |
| COc1cc(-c2nnc(-c3cc(C(C)C)c4c(C)nn(C)c4n3)[nH]2)cc(Cl)n1 | > 1000 | – | – | – | – |
| COc1cc(NC(=O)NC(=O)c2cc(C(F)(F)F)c3c(C)n[nH]c3n2)cc(Cl)n1 | > 1000 | – | – | – | – |
| COc1cc(-c2nc(-c3cc(C(C)C)c4c(C)nn(C)c4n3)no2)cc(Cl)n1 | > 1000 | – | – | – | – |
| COc1cc(NC(=O)NC(=O)c2cc(C(C)C)c3c(n2)c(C)nn3C)cc(Cl)n1 | > 1000 | – | – | – | – |
| Cc1n[nH]c2nc(C(=O)NC(=O)Nc3cc(Cl)nc(Cl)c3)cc(C(F)(F)F)c12 | > 1000 | – | – | – | – |
| COc1cc(NC(=O)NC(=O)c2cc(C(F)(F)F)c3c(C)nn(C)c3n2)cc(Cl)n1 | > 1000 | – | – | – | – |
| Cc1nn(C)c2nc(NNC(=O)Nc3cc(Cl)nc(Cl)c3)cc(C(C)C)c12 | – | – | > 1000 | – | > 1000 |
| Cc1nn(C)c2nc(C(=O)NC(=O)Nc3cc(Cl)nc(Cl)c3)cc(C(F)(F)F)c12 | > 1000 | – | – | – | – |

The next lines start with the values.

| IC50 [1] [nM] | IC50 [2] [nM] | IC50 [3] [nM] | IC50 [4] [nM] | IC50 [5] [nM] | Structure (SMILES) |
| --- | --- | --- | --- | --- | --- |
| > 1000 | – | – | – | – | Cc1nn(C)c2nc(NNC(=O)Nc3nc4c(Cl)nc(Cl)cc4[nH]3)cc(C(C)C)c12 |
| 56.5 | > 1000 | > 1000 | > 1000 | > 1000 | Cc1nn(C)c2nc(NNC(=O)Nc3cc(Cl)nc(OCC4CC4)c3)cc(C(C)C)c12 |
| 29.1 | > 1000 | > 1000 | > 1000 | > 1000 | Cc1nn(C)c2nc(NNC(=O)Nc3cc(Cl)nc(OC(C)C)c3)cc(C(C)C)c12 |
| > 1000 | – | – | – | – | Cc1nn(C)c2nc(NNC(=O)Nc3cc(Cl)n4ccnc4c3)cc(C(C)C)c12 |
